{"source": "patent US20240115654A1", "about": "“INTRAVENOUS ADMINISTRATION OF ENGINEERED ANTIMICROBIAL AMPHIPHILIC PEPTIDES” (priority 2021, published 2024)", "key": {"[1]": {"system": "Staphylococcus aureus isolates (n = 104)", "assay": "microbe, parasite or virus in culture", "experimental": "Comparator antibiotics were supplied by Micromyx, and stock solutions were prepared on the first day of testing using solvents recommended by CLSI (1). Stock solutions of all compounds were made at 40× the final testing concentration and stored at −80° C. prior to testing. Information regarding compound source, catalog and lot number, testing concentrations and drug diluent for the comparators and test agent are detailed below in Table 3.\nThe test organisms evaluated in this study consisted of clinical isolates from the Micromyx Repository and reference isolates from the American Type Culture Collection (ATCC; Manassas, VA). The clinical isolates were obtained from USA hospitals. Upon initial receipt at Micromyx, the organisms were sub-cultured onto an appropriate agar medium. Following incubation, colonies were harvested from these plates and cell suspensions prepared and frozen at −80° C. with a cryoprotectant. Prior to testing, the isolates were streaked from frozen vials onto Trypticase Soy Agar with 5% sheep blood (Becton Dickenson [BD]; Sparks, MD; Lot Nos. 7173618, 7166759, 7208688, 72144895, 7228505 and Remel Lenexa, KS Lot No. 212574). Plates were incubated at 35° C. overnight.\nMueller Hinton II broth (MHB II; BD; Lot Nos. 6258541 and 7143896) was used for MIC testing of aerobic organisms.\nMIC values were determined using a broth microdilution procedure described by CLSI (1, 3). Automated liquid handlers (Multidrop 384, Labsystems, Helsinki, Finland; Biomek 2000 and Biomek FX, Beckman Coulter, Fullerton CA) were used to conduct serial dilutions and liquid transfers.\nTo prepare the drug mother plates, which would provide the serial drug dilutions for the replicate daughter plates, the wells of columns 2-12 of standard 96-well microdilution plates (Costar 3795) were filled with 150 μl of the designated diluent for each row of drug. The test articles and comparator compounds (300 μl at 40× the highest concentration to be tested) were dispensed into the appropriate wells in column 1. The Biomek 2000 was then used to make 2-fold serial dilutions in the mother plates from column 1 through column 11. The wells of Column 12 contained no drug and served as the organism growth control wells for the assay.\nThe daughter plates were loaded with 185 μL per well of MHB II using the Multidrop 384. The daughter plates were completed on the Biomek FX instrument which transferred 5 μL of drug solution from each well of a mother plate to the corresponding well of each daughter plate in a single step. A standardized inoculum of each test organism was prepared per CLSI methods (1). The inoculum for each organism was dispensed into sterile reservoirs divided by length (Beckman Coulter), and the Biomek 2000 was used to inoculate the plates. Daughter plates were placed on the Biomek 2000 work surface in reverse orientation so that inoculation took place from low to high drug concentration.\nPlates were stacked 3-4 high, covered with a lid on the top plate, placed in plastic bags, and incubated at 35° C. for 16 to 20 hrs. Following incubation, the microplates were removed from the incubator and viewed from the bottom using a plate viewer. […] The MIC was read and recorded as the lowest concentration of drug that inhibited visible growth of the organism.\nClinical breakpoints to determine percent resistance within a given organism group were obtained from CLSI (3), with the exception of colistin for K. pneumoniae, Enterobacter spp., and E. coli, which are only available from EUCAST."}, "[2]": {"system": "P. aeruginosa strains (PAO1 and 2 clinical isolates)", "assay": "Determination of bacterial resistance, passage at 0.5×MIC with daily MIC", "assay_type": "cell-based, Pseudomonas aeruginosa", "conditions": "three P. aeruginosa strains, exposure at 0.5×MIC, FIG. 20", "excerpt": "Each antibiotic was compared for their propensity to select for bacterial resistance phenotypes in vitro."}, "[3]": {"conditions": "Staphylococcus aureus (n = 104), all methicillin-resistant"}}, "note": "Peptide text beside a SMILES is read from it."}
{"compound": "CC(C)[C@H](NC(=O)[C@H](Cc1c[nH]c2ccccc12)NC(=O)[C@H](CCCNC(=N)N)NC(=O)[C@H](CCCNC(=N)N)NC(=O)[C@@H](NC(=O)[C@@H](NC(=O)[C@H](CCCNC(=N)N)NC(=O)[C@@H](NC(=O)[C@@H](NC(=O)[C@H](CCCNC(=N)N)NC(=O)[C@H](CCCNC(=N)N)NC(=O)[C@H](Cc1c[nH]c2ccccc12)NC(=O)[C@@H](NC(=O)[C@H](CCCNC(=N)N)NC(=O)[C@H](CCCNC(=N)N)NC(=O)[C@@H](NC(=O)[C@H](CCCNC(=N)N)NC(=O)[C@H](CCCNC(=N)N)NC(=O)[C@@H](NC(=O)[C@H](Cc1c[nH]c2ccccc12)NC(=O)[C@H](CCCNC(=N)N)NC(=O)[C@@H](N)CCCNC(=N)N)C(C)C)C(C)C)C(C)C)C(C)C)C(C)C)C(C)C)C(C)C)C(=O)N[C@@H](CCCNC(=N)N)C(=O)N[C@@H](CCCNC(=N)N)C(N)=O", "note": "[SEQ ID NO: 1] (H-RRWVRRVRRVWRRVVRVVRRWVRR-NH2)", "values": [{"measurement": "MIC50", "setting": "[1]; S. aureus MRSA, n=104", "result": 4, "unit": "µg/mL"}, {"measurement": "MIC90", "setting": "[1]; S. aureus MRSA, n=104", "result": 8, "unit": "µg/mL"}, {"measurement": "MIC range", "setting": "[1]; S. aureus MRSA, n=104", "result": "1 to 16", "unit": "µg/mL"}, {"measurement": "MIC50", "setting": "[1]; [3]", "result": 4, "unit": "µg/mL"}, {"measurement": "MIC90", "setting": "[1]; [3]", "result": 8, "unit": "µg/mL"}, {"measurement": "Mode (MIC)", "setting": "[1]; [3]", "result": 4, "unit": "µg/mL"}]}
{"compound": "Colistin [reference compound]", "values": [{"measurement": "time to development of resistance (fold MIC >10)", "setting": "[2]", "result": "≤ 13", "unit": "days"}]}
